The source of these data is patent US4713238A (GAF Corporation, priority 1986, dated 1987).

≈ marks a conversion by molar mass, not a printed value.

In general, solubility (thermodynamic) refers to the concentration in solution at equilibrium with solid. As usually defined, the solubility is how much of the substance goes into solution per volume. A higher solubility goes with much dissolved substance.

A short description of data set [1]: physchem. Particulars: water. The procedure:
The pH was adjusted with a buffer solution to 6 and distilled water was added to bring the solution to 1% concentration. The resulting mixture was agitated on a horizontal shaker at room temperature for 24 hours.
The pH was then adjusted to 6.5 with a concentrated aqueous hydrochloric acid solution to convert the complexed salt to the complexed product of the process and agitation was continued for 2 hours.

The conditions of data set [2]: cited from earlier work.

As for `NS(=O)(=O)c1cc2c(cc1Cl)N=CNS2(=O)=O` [chlorothiazide, 6-chloro-7-sulfamyl-1,2,4-benzothiadiazine-1,1-dioxide], the thermodynamic solubility at 24 h in data set [1] (pH 6, water) is 500 µg/mL (≈ 1690 µM). This compound also showed a solubility in data set [1] (water solubility of uncomplexed chlorothiazide) of approximately 500 µg/mL (≈ 1690 µM). For the same compound, the “solubility in alkaline aqueous solutions” value in data set [2] (alkaline aqueous solutions / alkali hydroxides) was “soluble in alkaline aqueous solutions”. Also, the water-solubility in data set [2] (pH 6) is reported as 0.5 g. per liter.
